Laboratory results: patent US7989466B2, “Methods to inhibit or augment an inflammatory response” (Cambridge Enterprise Limited, priority 1999, dated 2011)
Positions of bridges follow the written chain, without caps; N, C: chain ends. Non-standard residues stand in square brackets, D forms with d. Residues, ends and D or L forms follow the SMILES beside them. No end group written: not given here.

Experiments:
[1] = system: chemokine induced calcium flux; test: Intracellular calcium flux in THP-1 cells (Fura2); assay type: cell-based, human
Procedure: CRD-Leu4Ile11Cys13 peptide 3(3-12)[MCP-1] at 6.7 μg/ml was incubated with THP-1 cells (2×10^6 cells/ml) for 25 minutes prior to exposure to agonist (10 ng/ml) and measurement of flux. The second exposure to agonist is 2 minutes later. Fluorescence is measured at 510 nm.
Monocytes, eosinophils, neutrophils and lymphocytes loaded with Fura-2 (0.1 nmol/10^5 cells) are stimulated with a chemokine in the presence or absence of the therapeutic agent, and [Ca^2+]i-related fluorescence changes are recorded (Von Tschanner et al., Nature, 324, 369 (1986)). […] The Fura-2 fluorescence of the monocyte suspension is measured at 37° C. in a single excitation, single emission (500 nm) wavelength Perkin-Elmer LS5 fluorometer. [Ca^2+]i is calculated from changes in fluorescence measured at a single excitation wavelength of 340 nm.
After peptide 3 binds to its receptor, it may block proteins required to effect the response (e.g., block specific integrins needed for chemokine-induced migration but not fNLP or TGFb induced migration), down regulate a chemokine receptor, or interfere with signal transduction mechanisms. Interference with signal transduction mechanisms can be detected in either a direct or indirect manner (for example, using assays for measuring intracellular calcium flux, cAMP, pI3, kinase activity, and DAG).

[2] = system: LPS- and MCP-1-induced dermal inflammation; test: Rat dermal inflammation model (MCP-1 / LPS intradermal); assay type: in vivo
Procedure: To assess the efficacy of an agent of the invention in the prevention of lipopolysaccharide (LPS)- and MCP-1-induced dermal inflammation in the rat, three different doses of CRD-Leu4Ile11Cys13peptide 3(3-12)[MCP-1] were administered. An inflammatory response was elicited by intradermal injection (ventral abdomen) of either 500 ng MCP-1 or 100 ng MCP-1 along with endotoxin-free phosphate-buffered saline vehicle (as a negative control) and bacterial lipopolysaccharide (LPS; as a positive control). Each substance was injected at a different site. The results obtained from animals were compared to CRD-Leu4Ile11Cys13 peptide 3(3-12)[MCP-1] treated, and PBS (diluent control) treated, animals. […] The intradermal sites of agonist injection were collected, bisected and the extent of the inflammatory response was assessed by histopathology and quantitative immunofluorescence (fixed and frozen) (for example, following MCP-1 injection, the number of monocyte/macrophages in the skin was determined using the anti-CD14 (MCA342 from Serotec; clone ED2) at 3 μg/ml overnight at 4° C. The second antibody was rat anti-mouse FITC (415-096-100 from Jackson ImmunoResearch) at 28 μg/ml for 6 hours at room temperature). […]

[3] = target: T1, short splice variant D2 dopamine receptor (Homo sapiens, UniProt P14416); test: Dopamine receptor membrane binding (3H-Spiperone); conditions: 100 μM highest concentration tested; read-out: ED50 for competition of spiperone binding to short splice variant D2 dopamine receptor
T1 construct: purchased RBI/Sigma D-179
T1 sequence (P14416 1-414 isoform P14416-2): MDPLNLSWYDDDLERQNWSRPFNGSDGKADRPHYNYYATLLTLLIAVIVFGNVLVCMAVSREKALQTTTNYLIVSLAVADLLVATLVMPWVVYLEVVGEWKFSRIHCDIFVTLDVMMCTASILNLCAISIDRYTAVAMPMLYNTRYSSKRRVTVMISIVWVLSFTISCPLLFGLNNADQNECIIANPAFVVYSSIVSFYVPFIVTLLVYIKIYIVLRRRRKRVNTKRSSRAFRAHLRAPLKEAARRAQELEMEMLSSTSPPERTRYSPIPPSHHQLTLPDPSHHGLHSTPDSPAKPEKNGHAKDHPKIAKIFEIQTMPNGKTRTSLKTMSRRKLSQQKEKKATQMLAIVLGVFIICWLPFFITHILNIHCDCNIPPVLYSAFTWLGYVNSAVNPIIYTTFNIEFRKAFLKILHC
Procedure: For dopamine receptor binding, membranes (D-179, RBI/Sigma) are diluted into binding buffer (75 mM Tris pH 7.4, 12.5 mM MgCl2 and 2 mM EDTA). For example, 10 μl of membranes are diluted in 500 μl of binding buffer (i.e., 1:50 dilution), which is aliquoted into labelled tubes. Cold competitor or test competitor is added, (e.g., 5 μl of 100× stock solution; 5 μl of 1 mM haloperidol solution (H-100, RBI/Sigma in DMSO). Radioligand is then added (3H-Spiperone, TRK 818, Amersham, 250 μCi in 250 μl, 10.5 μM at 95 Ci/mmol). For competition studies, 0.5 nM is used. A 100× stock (i.e., 50 nM) is made by diluting the commercial stock 1:210 in binding buffer, and 5 μl is added to every tube. Control tubes have radioligand but no membranes. The mixtures are vortexed, then spun very briefly. The mixtures are then incubated for 1 hour at 27° C. in a water bath. The mixture is filtered through GF/C filters over a vacuum. Each filter is pre-soaked in polyethyleneimine (0.3% in water; add 1 ml of 10% stock (P-261; RBI/Sigma) to 33 ml of MilliQ water). The tubes are washed with 2-3 ml of wash buffer (50 mM Tris pH 7.4) and the wash filtered. The filters are then rinsed with 3×5 ml of wash buffer, air dried, placed in a scintillation vial and 4.5 ml of scintillant added. The activity on the filter is then determined.

gp120 = conditions: ns = not significantly different from control; >100 = ED50 not determined

For `CC[C@@H](C)[C@H]1NC(=O)[C@@H](CCC(N)=O)NC(=O)[C@H](N)CSSC[C@H](C(N)=O)NC(=O)[C@@H](CC(C)C)NC(=O)[C@@H](CC(=O)O)NC(=O)[C@H]2CCCN2C(=O)[C@@H](CCCCN)NC(=O)[C@@H](CCC(N)=O)NC(=O)[C@@H](CCCCN)NC(=O)[C@@H](Cc2c[nH]c3ccccc23)NC1=O` (H-[dC][dQ][dI][dW][dK][dQ][dK][dP][dD][dL][dC]-NH2; disulfide 1-11; N-terminus assumed), which “effect on MCP-1 induced calcium flux” value [1] is on record?
Its value is “did not block”.

What about the “effect on SDF-1 induced calcium flux” value [1] of the same molecule?
The value was “did block”.

What about the “recruitment of B-cells to the site of the LPS injection” value ([2]; rat skin) of the same molecule?
The value was “substantially inhibited”.

What about the “MCP-1 induced recruitment of monocyte/macrophages in rat skin” value ([2]; systemic treatment 30 minutes before intradermal MCP-1) of the same molecule?
The value was “completely abolished”.

Which EC50 [3] does the source give for `C=CCCCCCCCCC(=O)N[C@H]1CCC(=O)NC1=O` [A-I (NR58.4), [3S]-3-(undec-10-enoylamino)piperidine-2,6-dione] here?
Its EC50 is over 100 µM.

For “SYRRITSSKCPKEAV [peptide 2(1-15)[MCP-1]]”, which “gp120 ED-50” value (gp120) is on record?
The value was 0.4 µM.
